Columns and labels:
[1] = test system: B. adolescentis phylogenetic group; assay: Healthy adult study, ITS profiling of the Bifidobacterium community in faecal samples; format: in vivo, human; conditions: healthy adults
Method: (§1) A total of 100 male and female healthy adults are recruited to participate in the study. After a screening visit and run-in period of 1-2 weeks, the participants are selected and randomized into ten groups, each of 10 subjects. One group is administered daily a placebo product containing 2 grams of glucose. The remaining 9 groups are administered daily a treatment product containing one of the following: a) 20 g of 2′-FL, b) 10 g of 2′-FL, c) 5 g of 2′-FL, d) 20 g of LNnT, e) 10 g of LNnT, f) 5 g of LNnT, g) 20 g of a 2:1 mixture of 2′-FL and LNnT, h) 10 g of a 2:1 mixture of 2′-FL and LNnT, and i) 5 g of a 2:1 mixture of 2′-FL and LNnT for 2 weeks. The placebo and treatment products are in powder form in a unit dosage container.
(§2) The study runs for 2 weeks with the participants consuming either a placebo or a treatment product daily. Participants are instructed to consume the products in the morning with breakfast. Compliance is monitored through the interactive internet enabled system.
(§3) To assess the Bifidobacterium community, ITS profiling of DNA samples is performed according to Milani et al, FEMS Microbiol. Ecol. 90, 493 (2014). […] Both B. adolescentis and B. pseudocatenulatum are members of the B. adolescentis phylogenetic group. It can be seen that oral ingestion of the HMOs clearly increases the abundance of B. adolescentis and/or B. pseudocatenulatum in the microbiota of healthy adults, as well as its relative abundance compared to the totality of other Bifidobacterium species.

[2] = test system: totality of B. longum + B. bifidum + B. animalis lactis + B. angulatum; assay: as above; format: in vivo, human; conditions: healthy adults
Method: as §1, §2, §3

Compound	percentage increase of B. adolescentis phylogenetic group in human faeces after consumption of HMOs ([1]; 5 g daily for 2 weeks) [%]	percentage increase of B. adolescentis phylogenetic group in human faeces after consumption of HMOs ([1]; 10 g daily for 2 weeks) [%]	percentage increase of B. adolescentis phylogenetic group in human faeces after consumption of HMOs ([1]; 20 g daily for 2 weeks) [%]	percentage increase of totality of B. longum + B. bifidum + B. animalis lactis + B. angulatum in human faeces after consumption of HMOs ([2]; 5 g daily for 2 weeks) [%]	percentage increase of totality of B. longum + B. bifidum + B. animalis lactis + B. angulatum in human faeces after consumption of HMOs ([2]; 10 g daily for 2 weeks) [%]	percentage increase of totality of B. longum + B. bifidum + B. animalis lactis + B. angulatum in human faeces after consumption of HMOs ([2]; 20 g daily for 2 weeks) [%]
2′-fucosyllactose [2′-FL]	50	325	120	0	20	15
CC(=O)N[C@H]1[C@H](O[C@H]2[C@@H](O)[C@@H](CO)O[C@@H](O[C@H]3[C@H](O)[C@@H](O)C(O)O[C@@H]3CO)[C@@H]2O)O[C@H](CO)[C@@H](O[C@@H]2O[C@H](CO)[C@H](O)[C@H](O)[C@H]2O)[C@@H]1O (mixture of isomers) [LNnT, lacto-N-neotetraose]	90	195	185	50	130	105
